Experimental data taken from PubChem BioAssay AID1033 (Sanford-Burnham Center for Chemical Genomics, 2008).
Active and inactive are the calls of the source. No rule for the calls is given here.

What follows are compounds tested against Chaperone protein DnaK (Escherichia coli (strain K12)) (UniProt P0A6Y8) (assay: binders of DnaK substrate-binding domain, biophysical, NMR, chaperone (AID 1033)). Conditions: Purified DnaK SBD, NMR ligand binding.
Chaperone protein DnaK (Escherichia coli (strain K12)), sequence (P0A6Y8 whole entry, looked up, the tested form may be a part): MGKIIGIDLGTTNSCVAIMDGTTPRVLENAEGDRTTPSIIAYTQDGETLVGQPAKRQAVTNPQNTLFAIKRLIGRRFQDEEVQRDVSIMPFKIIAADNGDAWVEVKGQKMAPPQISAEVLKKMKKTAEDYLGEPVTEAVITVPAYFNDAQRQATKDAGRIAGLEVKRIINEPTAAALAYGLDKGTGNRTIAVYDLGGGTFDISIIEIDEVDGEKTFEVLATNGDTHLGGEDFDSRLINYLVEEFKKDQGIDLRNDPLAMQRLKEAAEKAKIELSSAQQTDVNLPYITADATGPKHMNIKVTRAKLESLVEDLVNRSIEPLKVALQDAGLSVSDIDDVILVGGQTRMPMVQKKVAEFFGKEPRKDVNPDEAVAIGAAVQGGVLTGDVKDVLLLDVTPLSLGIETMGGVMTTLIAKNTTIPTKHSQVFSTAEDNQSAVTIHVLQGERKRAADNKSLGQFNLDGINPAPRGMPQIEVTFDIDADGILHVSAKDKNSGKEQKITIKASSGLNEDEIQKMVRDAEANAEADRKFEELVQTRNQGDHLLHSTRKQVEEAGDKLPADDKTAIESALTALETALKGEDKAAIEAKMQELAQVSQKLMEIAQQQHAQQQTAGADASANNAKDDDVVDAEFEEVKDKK
In the case of `Cc1cc(C)n(CC(=O)NC2CCCCC2)n1`, the Kd is reported as > 4 mM (inactive). For `COC[C@]12CN(C=O)C3[C@@H]4[C@H](OC)C1[C@]3(C1CC3(O)C(OC)C(O)C4(OC(C)=O)C1C3OC(=O)c1ccccc1)[C@@H](OC)C[C@H]2O` (some centres not stated), the Kd was > 4 mM (inactive). For `CN(C)Cc1c(N)cccc1O`, the Kd was > 4 mM (inactive). `CCOC(=O)c1nc2ccccc2c(=O)n1N` was tested, and the Kd was > 4 mM (inactive). With `Cc1csc2nc3ccccc3c(=O)n12` the Kd was > 4 mM (inactive). With `Cc1nc(-c2ccccc2)sc1C(N)=O` the Kd was > 4 mM (inactive). For `Cc1nnsc1C(=O)N(C)c1ccccc1`, the Kd was > 4 mM (inactive). In the case of `Cn1ncc2c(=O)n(CC(=O)c3ccccc3)cnc21`, the Kd is reported as > 4 mM (inactive). For `COc1ccc(-c2nc(N)n(C(C)=O)n2)cc1`, the Kd was > 4 mM (inactive). For `c1ccc(CCc2nc(-c3cccnc3)no2)cc1`, the Kd was > 4 mM (inactive). With `Cc1nc(-c2ccccc2)sc1CO` the Kd was > 4 mM (inactive). With `COc1ccc2c(c1)O[C@@H]1COc3cc(OC)c(OC)cc3[C@@H]1C2=O` the Kd was > 4 mM (inactive). For `CN1C(=O)C(Cc2c[nH]c3ccccc23)C(=O)N(C)C1=O`, the Kd was > 4 mM (inactive). In the case of `CCC[C@H]1CC2=C(C[C@@H](CC)CC3=C1C(=O)OC3=O)C(=O)OC2=O`, the Kd is reported as > 4 mM (inactive). `CN1C(CC(=O)c2ccccc2)CCCC1CC(O)c1ccccc1` (configuration not stated) was tested, and the Kd was > 4 mM (inactive). `O=C1NC(=Nc2ccc(O)cc2)S/C1=C/c1ccco1` was tested, and the Kd was > 4 mM (inactive). For `CC(C)=CCc1c(O)cc2oc(C)cc(=O)c2c1O`, the Kd was > 4 mM (inactive). For `COC(=O)C1[C@H]2C[C@H]3c4[nH]c5ccccc5c4CCN3C[C@@H]2CC[C@@H]1O` (some centres not stated), the Kd was > 4 mM (inactive). `OCC1CCN(c2ncccn2)CC1` was tested, and the Kd was > 4 mM (inactive). With `O=C(O)CCCN1CNC(=S)NC1` the Kd was > 4 mM (inactive). `O=C1c2ccccc2C(=O)N1OCc1ccccc1` was tested, and the Kd was > 4 mM (inactive). With `Cc1nn(C)c2sc(C(=O)O)cc12` the Kd was > 4 mM (inactive). With `CSc1ccc(/C=N/n2c(C)nnc2C)cc1` the Kd was > 4 mM (inactive). In the case of `COc1ccc(Cl)cc1-c1n[nH]c(=S)n1C`, the Kd is reported as > 4 mM (inactive). With `OCc1ccc(N2CCOCC2)cc1` the Kd was > 4 mM (inactive). In the case of `CC(=O)Oc1c(C)cc(O)c2ccccc12`, the Kd is reported as > 4 mM (inactive). `COc1ccc(S(=O)(=O)Nc2ccccn2)c(C)c1C` was tested, and the Kd was > 4 mM (inactive). In the case of `CC(C)=NNC(=O)c1ccccc1`, the Kd is reported as > 4 mM (inactive). For `CC1(C)C2CC[C@]3(C)C(C(=O)C=C4[C@@H]5C[C@@](C)(C(=O)O)CC[C@]5(C)CC[C@]43C)[C@@]2(C)CC[C@@H]1O` (some centres not stated), the Kd was > 4 mM (inactive). With `COC(=O)c1cccnc1Oc1ccccc1` the Kd was > 4 mM (inactive). With `COc1ccc(/C=C2\NC(=S)N(C)C2=O)cc1O` the Kd was > 4 mM (inactive). With `O=C(Nc1nc2ccccc2s1)c1ccc(=O)[nH]n1` the Kd was > 4 mM (inactive). `O=C1NC(=S)NC(=O)C1=Cc1cccs1` was tested, and the Kd was > 4 mM (inactive). For `O=c1cnnc(NCc2ccc(F)cc2)[nH]1`, the Kd was > 4 mM (inactive). In the case of `N#Cc1cccc(Cn2nnc(-c3ccccc3)n2)c1`, the Kd is reported as > 4 mM (inactive). `Nc1ccccc1-c1nc2ccccc2[nH]1` was tested, and the Kd was > 4 mM (inactive). In the case of `C(=N\n1cnnc1)/c1cccs1`, the Kd is reported as > 4 mM (inactive). In the case of `c1cc(C(N2CCOCC2)N2CCOCC2)ccn1`, the Kd is reported as > 4 mM (inactive). For `CSc1ccc(S(=O)(=O)N2CCCC2)cc1`, the Kd was > 4 mM (inactive). `Cc1onc(-c2ccc(F)cc2)c1C(=O)O` was tested, and the Kd was > 4 mM (inactive). `CNC(=O)c1c(O)c2ccccc2[nH]c1=O` was tested, and the Kd was > 4 mM (inactive). `Cc1nn(C)c(N2CCOCC2)c1N` was tested, and the Kd was > 4 mM (inactive). `CN(C)S(=O)(=O)N1CCc2ccccc21` was tested, and the Kd was > 4 mM (inactive). For `Cc1cc(C(=O)Nc2sc(C)c(C)c2C#N)no1`, the Kd was > 4 mM (inactive). For `O=S1(=O)NC(=NCc2ccco2)c2ccccc21`, the Kd was > 4 mM (inactive). `Nc1cc(=O)[nH]c(SCC(=O)NCc2ccccc2)n1` was tested, and the Kd was > 4 mM (inactive). In the case of `O=C(O)c1cc(O)c(O)c(O)c1`, the Kd is reported as > 4 mM (inactive).
